Earlier results in patent US20060099208A1, “Method of potentiating the therapeutic action of monoclonal and polyclonal antibodies” (priority 2004, published 2006).
“Also recorded” adds a separate entry of the source. Read-outs that look alike come from different tables or passages of the source.

Tests used:
[1] = test system: hepatoma; conditions: rats; pure fatty acid or fatty acid rich oils
[2] = test system: normal cells
[3] = test system: tumor cells; conditions: in-vitro; for killing of tumor cells: tumor cells and normal cells from American Type Culture Collection
[4] = test system: ascitic tumor cells; conditions: experimental animals; pure fatty acid or fatty acid rich oils
[5] = test system: tumor cells; conditions: PUFA combined with anti-cancer drug
[6] = test system: colon cancer
[7] = test system: skin papilloma; conditions: mice; pure fatty acid or fatty acid rich oils
[8] = test system: tumor cells; conditions: mixed culture, normal and tumor cells grown together

CCCCC/C=C\C/C=C\C/C=C\CCCCC(=O)O [GLA, gamma-linolenic acid]
formation and growth of hepatoma [1]: inhibit | survival of normal cells ([2]; in-vitro): without having any significant action | tumor cell proliferation [3]: decrease tumor cell proliferation | killing of tumor cells [3]: only tumor cells were killed; also recorded: selectively kill the tumor cells | growth of ascitic tumor cells in the peritoneum [4]: inhibit | cytotoxic action of anti-cancer drugs doxorubicin, vincristine and cis-platinum [5]: can be augmented

Avastin: humanized monoclonal antibody to VEGF developed by Genentech
side effects ([6]; human, in vivo): many side effects | extension of colon cancer patients' lives ([6]; in combination with chemotherapy, trial of 900 patients): 5 months

CCCCC/C=C\C/C=C\C/C=C\CCCCCCC(=O)O [DGLA, dihomo-GLA]
formation and growth of hepatoma [1]: inhibit | survival of normal cells [2]: without having any significant action | tumor cell proliferation [3]: decrease tumor cell proliferation | killing of tumor cells [3]: only tumor cells were killed; also recorded: selectively kill the tumor cells | growth of skin papilloma [7]: inhibit the growth | growth of ascitic tumor cells in the peritoneum [4]: inhibit

CCCCC/C=C\C/C=C\C/C=C\C/C=C\CCCC(=O)O [AA, arachidonic acid]
formation and growth of hepatoma [1]: inhibit | selective tumoricidal action [8]: effective to some extent | survival of normal cells ([2]; in-vitro): without having any significant action | tumor cell proliferation [3]: decrease tumor cell proliferation | killing of tumor cells [3]: only tumor cells were killed; also recorded: selectively kill the tumor cells | growth of skin papilloma [7]: inhibit the growth | growth of ascitic tumor cells in the peritoneum [4]: inhibit | cytotoxic action of anti-cancer drugs doxorubicin, vincristine and cis-platinum [5]: can be augmented

CC/C=C\C/C=C\C/C=C\C/C=C\C/C=C\C/C=C\CCC(=O)O [DHA, docosahexaenoic acid]
survival of normal cells ([2]; in-vitro): without having any significant action | cytotoxic action of anti-cancer drugs doxorubicin, vincristine and cis-platinum [5]: can be augmented

CC/C=C\C/C=C\C/C=C\C/C=C\C/C=C\CCCC(=O)O [EPA, eicosapentaenoic acid]
survival of normal cells ([2]; in-vitro): without having any significant action | cytotoxic action of anti-cancer drugs doxorubicin, vincristine and cis-platinum [5]: can be augmented
